# Test results published in patent US20240217968A1, “PHARMACEUTICAL COMPOUND” (DUKE STREET BIO LIMITED, priority 2021, published 2024).
# Target: T1, recombinant human Flag-tagged PARP7 (amino acids 456-657) (Homo sapiens, UniProt Q7Z3E1)
# T1 construct: recombinant human Flag-tagged PARP7 (amino acids 456-657)
# T1 sequence (Q7Z3E1 456-657): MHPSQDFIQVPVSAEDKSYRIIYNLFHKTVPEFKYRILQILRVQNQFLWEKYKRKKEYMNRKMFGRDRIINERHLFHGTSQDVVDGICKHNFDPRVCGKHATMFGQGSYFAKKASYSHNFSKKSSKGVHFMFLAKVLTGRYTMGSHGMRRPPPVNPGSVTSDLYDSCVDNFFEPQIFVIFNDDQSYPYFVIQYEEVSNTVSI
# Experiment: PARP7 biochemical DELFIA assay (auto-MARylation)
# Settings: DELFIA readout, IC50 class
# Procedure: A suitable assay may be conducted using 10-30 nM PARP7 (amino acids 456-657), 2 μM biotin-NAD assay solution in 20 mM HEPES (pH 7.5), 100 mM NaCl, 2 mM DTT, 0.1% BSA (w/v), 0.02% Tween (v/v) assay buffer. MARylation may take place for 2-3 h at room temperature and may be detected using a dissociation-enhanced lanthanide fluorescence immunoassay (DELFIA) readout. This assay format has been recently utilised for screening for modulators of PARP7 and other MonoPARP enzymes ([…]. et al. Forced Self-Modification Assays as a Strategy to Screen MonoPARP Enzymes. SLAS Discovery. 25; 241-252, (2020)). A particularly suitable assay is described in the Examples below. Optiplate HB 384-well plates were coated with anti-FLAG antibody, supplied as a 4 mg/ml solution, using a Na2CO3/HCO3 coating buffer at pH 9.6, overnight at 4° C., in order to achieve a final immobilisation per well of 0.3 μg. Wells were then washed 3× in coating wash buffer (PBS/0.05% Tween (v/v)), blocked with 2% BSA (w/v) in coating wash buffer and washed 3 further times prior to assay. For the assay 20 μl of 12.5-37.5 nM recombinant human Flag-tagged PARP7 (amino acids 456-657) was added to each well of the 384-well plate for 30 min at room temperature. 50 nl of test compound in DMSO was added using pintool technology and plates were incubated for a further 30 min at room temperature. 5 μl of 15 μM biotin-NAD^+ assay solution in 20 mM HEPES (pH 7.5), 100 mM NaCl, 2 mM DTT, 0.1% BSA (w/v), 0.02% Tween (v/v) assay buffer was then added and MARylation proceeded for 2-3 h at room temperature prior to the addition of 5 μl of 12 mM NAD^+ quenching solution. After 30 min at room temperature, assay solution was removed and following washing 5 times, 100 μl of a 1:1000 dilution of DELFIA Eu-N1 Streptavidin reagent was added. Plates were then incubated for 30 min at room temperature. Reaction mixture was removed and plates washed 5 times prior to the addition of 25 μl DELFIA enhancement solution. Following incubation for 30 min at room temperature, fluorescence was read on either an Envision or Pherastar FS (Ex337 nm, Em620 nm).
row,Compound,IC50
1,"CC(COCC(=O)N1CCN(c2ncc(C(F)(F)F)cn2)CC1)Oc1cccc2c(=O)[nH]ncc12 (racemic) [Compound 33, 5-((1-(2-oxo-2-(4-(5-(trifluoromethyl)pyrimidin-2-yl)piperazin-1-yl)ethoxy)propan-2-yl)oxy)phthalazin-1(2H)-one]",0.1 to 1 µM
2,"CC1Cc2c(cn[nH]c2=O)N(CCOCCC(=O)N2CCN(c3ncc(C(F)(F)F)cn3)CC2)C1 (single isomer, unassigned) [Compound 64, 3-methyl-1-(2-(3-oxo-3-(4-(5-(trifluoromethyl)pyrimidin-2-yl)piperazin-1-yl)propoxy)ethyl)-2,3,4,6-tetrahydropyrido[2,3-d]pyridazin-5(1H)-one]",≤ 0.1 µM
3,"CC1Cc2c(cn[nH]c2=O)N(CCOCCC(=O)N2CCN(c3ncc(C(F)(F)F)cn3)CC2)C1 (single isomer, unassigned) [Compound 65, 3-methyl-1-(2-(3-oxo-3-(4-(5-(trifluoromethyl)pyrimidin-2-yl)piperazin-1-yl)propoxy)ethyl)-2,3,4,6-tetrahydropyrido[2,3-d]pyridazin-5(1H)-one]",≤ 0.1 µM
4,"CC(COCCC(=O)N1CCN(c2ccc(C#N)cn2)CC1)c1cccc2c(=O)[nH]ncc12 (single isomer, unassigned) [Compound 71]",≤ 0.1 µM
5,"CC(COCCC(=O)N1CCN(c2ncc(C(F)(F)F)cn2)CC1)c1cccc2c(=O)[nH]ncc12 (single isomer, unassigned) [Compound 72, 5-(1-(3-oxo-3-(4-(5-(trifluoromethyl)pyrimidin-2-yl)piperazin-1-yl)propoxy)propan-2-yl)phthalazin-1(2H)-one]",1 to 10 µM
6,"CC(COCCC(=O)N1CCN(c2ncc(C(F)(F)F)cn2)CC1)c1cccc2c(=O)[nH]ncc12 (single isomer, unassigned) [Compound 73, 5-(1-(3-oxo-3-(4-(5-(trifluoromethyl)pyrimidin-2-yl)piperazin-1-yl)propoxy)propan-2-yl)phthalazin-1(2H)-one]",≤ 0.1 µM
7,"CC1CN(c2ccc(C#N)cn2)CCN1C(=O)CCOCCc1cccc2c(=O)[nH]ncc12 (single isomer, unassigned) [Compound 86]",≤ 0.1 µM
8,"CC(OCCCC(=O)N1CCN(c2ncc(C(F)(F)F)cn2)CC1)c1cccc2c(=O)[nH]ncc12 (single isomer, unassigned) [Compound 122]",≤ 0.1 µM
9,"CC(OCCCC(=O)N1CCN(c2ncc(C(F)(F)F)cn2)CC1)c1cc(F)cc2c(=O)[nH]ncc12 (single isomer, unassigned) [Compound 130]",≤ 0.1 µM
10,"O=C(CCOCCc1cccc2c(=O)[nH]ncc12)N1CCN(c2ncc(C(F)(F)F)cn2)C(CO)C1 (single isomer, unassigned) [Compound 149]",≤ 0.1 µM
11,"Cc1cn(C(C)COCCC(=O)N2CCN(c3ncc(C(F)(F)F)cn3)CC2)c2cn[nH]c(=O)c12 (single isomer, unassigned) [Compound 151]",≤ 0.1 µM
12,"CC(OCCCC(=O)N1CCN(c2ncc(C(F)(F)F)cn2)CC1)c1cc(Cl)cc2c(=O)[nH]ncc12 (single isomer, unassigned) [Compound 174, 7-chloro-5-(1-(4-oxo-4-(4-(5-(trifluoromethyl)pyrimidin-2-yl)piperazin-1-yl)butoxy)ethyl)phthalazin-1(2H)-one]",≤ 0.1 µM
13,"CC(OCCCC(=O)N1CCN(c2ncc(C(F)(F)F)cn2)CC1)c1cc(Cl)cc2c(=O)[nH]ncc12 (single isomer, unassigned) [Compound 175, 7-chloro-5-(1-(4-oxo-4-(4-(5-(trifluoromethyl)pyrimidin-2-yl)piperazin-1-yl)butoxy)ethyl)phthalazin-1(2H)-one]",≤ 0.1 µM
14,"CC(COCCC(=O)N1CCN(c2ncc(C(F)(F)F)cn2)CC1)n1nc(C(F)(F)F)c2c(=O)[nH]ncc21 (single isomer, unassigned) [Compound 176, 1-(1-(3-oxo-3-(4-(5-(trifluoromethyl)pyrimidin-2-yl)piperazin-1-yl)propoxy)propan-2-yl)-3-(trifluoromethyl)-1,5-dihydro-4H-pyrazolo[3,4-d]pyridazin-4-one]",≤ 0.1 µM
